Earlier results in patent US3931141A, “Novel heptapeptides having gastrin activity” (Hoechst Aktiengesellschaft, priority 1972, dated 1976).

Tested on: stomach
Conditions: The Lancet 1966, page 933

Boc--β--Ala--Trp--Met--Asp--Phe--NH2 [formula IV]
stimulating action (acid production and quantity secreted) compared with other synthetic peptides: strongest stimulating action
